# Laboratory results reported in US9061984B2 (University of Louisville Research Foundation, Inc., priority 2008, dated 2015).
# Read-outs that look alike come from different tables or passages of the source.
# Legend:
# L. peruviana LCA08 = experiment: Activity against macrophages infected with Leishmania amastigotes; details: 48 h, read-out: IC50 L. peruviana LCA08
# Experimental: (§3) A cloned line of Leishmania amazonensis(strain MHOM/BR/76/LTB-012) was used in all experiments. Axenically grown amastigote forms of L. amazonensis were maintained by weekly subpassages in MAA/20 medium (Sereno and Lemesre, Antimicrobial Agents and Chemotherapy 41, 972-976 (1997)) at 32±1° C. in 25 cm^2 tissue culture flasks. L. peruviana (strain MHOM/PE/LCA08) and L. braziliensis (strainMHOM/PE/PER006) were maintained in the promastigote stage in a biphasic medium (blood agar with 0.89% NaCl, pH 7.4) at 24° C., with sub-passage every 3 to 4 days. Promastigotes (5×10^6 parasites) were then transferred to 25 cm2 tissue culture flasks containing 5 ml of M199 medium supplemented with 10% foetal bovine serum (FBS), pH 7.4. After 4 days, exponential phase promastigotes were centrifuged for 10 minutes at 1500 g and 4° C. The supernatant was discarded and replaced by fresh M199 medium supplemented with 20% FBS, pH 5.5. Axenic amastigotes transformation was then induced by increasing the temperature to 34° C. and incubating for 96 h (Teixeira et al., Parasitology Research 88, 963-968 (2002)).
# (§4) Extracted cells were immediately deposited on sterile 4×4 mm cover glasses and placed in each well of a 96-well plate. Plates were incubated for 24 h at 37° C., 5% CO2 to allow cell adhesion (Castillo et al, Journal of Ethnopharmacology 112, 410-414 (2007)). Pre-warmed complete M199 medium was used twice to remove non-adherent cells. A neutral red method (Fautz et al., Mutation Research 253, 173-179 (1991)) was employed to determine cell concentration. Approximately 7×10^4 viable cells were deposited in each well for adhesion.
# (§5) Infection of macrophages by amastigotes was determined as follows. […] Twelve hours after infection, a solution of the compounds to be tested was added to the cultures at various concentrations and maintained at 37° C. in 5% CO2 for a further forty-eight hours more. The plates were fixed with methanol and stained with 10% Giemsa stain. The percentage of infected macrophages was determined microscopically at 100 times magnification. The number of intracellular amastigotes was determined in 300 cells. Following Delorenzi et al. Antimicrobial Agents and Chemotherapy, 45, 1349-1354 (2001)) the percentage of infection rate (% IR) of each culture was calculated as follows: % IR=100−(infection rate of the treated culture/infection rate of the untreated culture)×100.
# (§6) All experiments were performed in triplicate. ANOVA was used to test for statistical significance of differences (Epi-Info, Statview student program). The total parasite burden was calculated as a mean number of amastigotes per cells multiplied by the number of infected macrophages.
# L. amazonensis Lma CL1 = experiment: as above; details: 48 h, read-out: IC50 L. amazonensis Lma CL1
# Experimental: as §3, §4, §5, §6
# peritoneal macrophages = experiment: Toxicity to peritoneal macrophages (Trypan Blue count); format: cell-based, BALB/C mouse
# L. braziliensis PER006 = experiment: Activity against macrophages infected with Leishmania amastigotes; details: 48 h, read-out: IC50 L. braziliensis PER006
# Experimental: as §3, §4, §5, §6
# [1] = tested on: axenic amastigotes of L. amazonensis (strain MHOM/BR/76/LTB-012); experiment: microbe, parasite or virus in culture; details: Leishmania amazonensis
# L. amazonensis = details: for cutaneous toxicity: at the tested doses (5 mg/kg/day intralesional); for Lesion diameter / Reduction of parasite burden After 4 weeks / Reduction of parasite burden After 7 weeks: compounds 5 mg/kg/day, Glucantime 33 mg/kg/day, intralesional
# M. tuberculosis H37Rv = experiment: Conventional aerobic (MABA) culture assay, luminescence MIC; format: cell-based, Mycobacterium tuberculosis
# [2] = tested on: Trypanosoma cruzi (Tulahuen C4); experiment: In vitro anti-T. cruzi activity (β-galactosidase CPRG colorimetric assay in VERO monolayer); format: cell-based; details: for IC50: Trypanosoma cruzi, TULAHUEN, Vero
# DU145 cells = experiment: Cell growth inhibition bioassay (sulforhodamine B); format: cell-based, human; details: Homo sapiens, DU-145; 48 h, SRB; read-out: GI50 in indicated cell line: DU145
# How it was run: (§1)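 Growth inhibition was measured colorimetrically with sulforhodamine B staining and expressed as percent inhibition relative to solvent-treated controls. Cell lines were human: MCF-7 breast adenocarcinoma, DU145 and PC3 prostate carcinoma/adenocarcinoma, H460 large cell lung cancer.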
# MCF-7 cells = experiment: Cell growth inhibition bioassay (sulforhodamine B); format: cell-based, human; details: Homo sapiens, MCF7; 48 h, SRB; read-out: GI50 in indicated cell line: MCF-7
# How it was run: as §1
# HT-29 cells = experiment: Cell growth inhibition bioassay (sulforhodamine B); format: cell-based, human; details: Homo sapiens, HT-29; 48 h, SRB; read-out: GI50 in indicated cell line: HT-29
# How it was run: (§2)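 Cells were exposed to compound alongside matched solvent controls, then stained with sulforhodamine B. Percent growth inhibition was calculated from dye absorbance against the control.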
# M-14 cells = experiment: Cell growth inhibition bioassay (sulforhodamine B); format: cell-based, human; details: Homo sapiens, M14; 48 h, SRB; read-out: GI50 in indicated cell line: M-14
# How it was run: as §2
# K562 cells = experiment: Cell growth inhibition bioassay (sulforhodamine B); format: cell-based, human; details: Homo sapiens, K562; 48 h, SRB; read-out: GI50 in indicated cell line: K562
# How it was run: as §2
# H460 cells = experiment: Cell growth inhibition bioassay (sulforhodamine B); format: cell-based, human; details: Homo sapiens, NCI-H460; 48 h, SRB; read-out: GI50 in indicated cell line: H460
# How it was run: as §1
# VERO cells = experiment: Cell growth inhibition bioassay (sulforhodamine B); format: cell-based, African Green Monkey; details: Chlorocebus sabaeus, Vero; 48 h, SRB; read-out: GI50 in indicated cell line: VERO
# How it was run: as §2
# [3] = Cytotoxicity VERO cell (Table 6); details: African green monkey, VERO cells
# 3T3 cells = experiment: Cell growth inhibition bioassay (sulforhodamine B); format: cell-based, mouse; details: Mus musculus, NIH3T3; 48 h, SRB; read-out: GI50 in indicated cell line: 3T3
# How it was run: as §2
# [4] = tested on: axenic amastigotes of L. amazonensis (strain MHOM/BR/76/LTB-012)
# [5] = Toxicity to peritoneal macrophages (Trypan Blue count); format: cell-based, BALB/C mouse; details: BALB/C, mouse, Cytotoxicity Macrophages IC50
# [6] = Cytotoxicity on VERO cells (MTT), anti-T. cruzi study; details: African green monkey, VERO cells, Cytotoxicity VERO Lab B, Lab B
# [7] = Leishmania peruviana, Macrophage
# [8] = Leishmania amazonensis, Macrophage
# [9] = Mus musculus, Peritoneal macrophage, 48 h, Table 7, read-out: IC50 Macrophage
# [10] = Leishmania braziliensis, Macrophage
# [11] = 72 h, read-out: IC50 L. amazonensis
smiles,measurement,setting,value
"COc1ccc(/C=C/C(=O)c2c(O)cc(O)cc2OC)c(OC)c1 [Compound I-36, (2E)-1-(2,4-Dihydroxy-6-methoxyphenyl)-3-(2,4-dimethoxyphenyl)-2-propen-1-one]",IC50,L. peruviana LCA08; [7],290 µM
same,IC50,L. amazonensis Lma CL1; [8],28.5 µM
same,IC50,peritoneal macrophages; [9],> 300 µM
same,IC50,L. braziliensis PER006; [10],237 µM
same,IC50,[1]; [11],6.4 µM
COCOc1cc(O)c(C(=O)/C=C/c2cc(OC)c(OC)c(OC)c2)c(OC)c1 [Compound I-46],IC50,L. peruviana LCA08; [7],19.3 µM
same,IC50,L. amazonensis Lma CL1; [8],28.7 µM
same,cutaneous toxicity,L. amazonensis,did not exhibit any cutaneous toxicity
same,Lesion diameter,L. amazonensis,5.1 mm
same,Reduction of parasite burden After 4 weeks,L. amazonensis,74%
same,Reduction of parasite burden After 7 weeks,L. amazonensis,41%
same,IC50,peritoneal macrophages; [9],132 µM
same,IC50,L. braziliensis PER006; [10],13.1 µM
same,IC50,[1]; [11],6.2 µM
Brc1ccccc1/C=N\Nc1ncnc2sc3c(c12)CCCC3 [II-31],MIC,"M. tuberculosis H37Rv; Mycobacterium tuberculosis, 168 h, aerobic, 7 days, H37Rv",9.4 µg/mL
same,Selectivity Index H37Rv,M. tuberculosis H37Rv; VERO vs MABA MIC,0.8
same,Selectivity Index Lab B,"[2]; IC50, VERO/IC50, T. cruzi, Lab B",0.8
same,IC50,"[2]; Lab A, read-out: T. cruzi IC50 Lab A",0.8 µg/mL
same,IC50,"[2]; Lab B, read-out: T. cruzi IC50 Lab B",3.6 µg/mL
same,GI50,DU145 cells,2.8 µg/mL
same,GI50,MCF-7 cells,1.7 µg/mL
same,GI50,HT-29 cells,3.1 µg/mL
same,GI50,M-14 cells,6 µg/mL
same,GI50,K562 cells,1.2 µg/mL
same,GI50,H460 cells,3 µg/mL
same,GI50,VERO cells,2 µg/mL
same,IC50,[3],7.7 µg/mL
same,GI50,3T3 cells,4.3 µg/mL
same,Selectivity Index,[4]; Table 8b,5.8
same,IC50 at 48 h,[5],2.9 µM
same,IC50,[6],3 µg/mL
same,IC50,[1]; read-out: L. amazonensis IC50,0.5 µM
COCOc1cc(OC)c(C(=O)/C=C/c2ccc3c(c2)OCO3)c(OCOC)c1 [Compound I-45],IC50,L. peruviana LCA08; [7],34.8 µM
same,IC50,L. amazonensis Lma CL1; [8],23.9 µM
same,cutaneous toxicity,L. amazonensis,did not exhibit any cutaneous toxicity
same,Lesion diameter,L. amazonensis,4.6 mm
same,Reduction of parasite burden After 4 weeks,L. amazonensis,92%
same,Reduction of parasite burden After 7 weeks,L. amazonensis,35%
same,IC50,peritoneal macrophages; [9],143 µM
same,IC50,L. braziliensis PER006; [10],17.2 µM
same,IC50,[1]; [11],11.7 µM
"C[C@@H]1[C@H](O)[C@@H](C)/C=C/C=C/C=C/C=C/C=C/C=C/C=C/[C@H](O[C@@H]2O[C@H](C)[C@@H](O)[C@H](N)[C@@H]2O)C[C@@H]2O[C@](O)(C[C@@H](O)C[C@@H](O)[C@H](O)CC[C@@H](O)C[C@@H](O)CC(=O)O[C@H]1C)C[C@H](O)[C@H]2C(=O)O [Amphotericin B, reference compound]",IC50,L. peruviana LCA08; infected macrophages,0.1 µM
same,IC50,L. amazonensis Lma CL1; infected macrophages,0.4 µM
same,IC50,[4],0.14 µM
same,IC50,"[4]; read-out: IC50 L. amazonensis, axenic amastigotes, 72 h, Table 7",0.1 µM
same,IC50,"[4]; read-out: L. amazonensis IC50, Table 8b",0.1 µM
same,IC50,peritoneal macrophages,5.4 µM
same,IC50,"peritoneal macrophages; 48 h, Table 7, read-out: IC50 Macrophage",5.3 µM
same,IC50,L. braziliensis PER006; infected macrophages,0.1 µM
